Experimental data from patent US12144864B2, “Tubulysins and protein-tubulysin conjugates” (Regeneron Pharmaceuticals, Inc., priority 2018, dated 2024).
Where two headings read alike, the source gives them in different places.

Assays:
HEK293 cells = assay: Cell-based killing assay of payloads (CellTiter-Glo), HEK293 cells; design: species or system human; settings: 5-day incubation; for IC50: Homo sapiens, HEK293, 120 h; for HEK293 % Kill: at maximum concentration tested
Procedure: (§1) To test the ability of the disclosed tubulysin payloads to kill human cell lines, an in vitro cytotoxicity assay was performed. In vitro cytotoxicity of the disclosed payloads, as well as reference compounds, were evaluated using the CellTiter-Glo Assay Kit (Promega, Cat #G7573), in which the quantity of ATP present is used to determine the number of viable cells in culture. For the assay, C4-2, HEK293, or T47D cells were seeded at 4000 cells/well on Nunclon white 96-well plates in complete growth medium (DME high glucose:Ham's F12 at 4:1, 10% FBS, 100 units/ml Penicillin, 100 ug/ml streptomycin, 53 ug/ml glutatmine, 10 ug/ml insulin, 220 ng/ml biotin, 12.5 pg/ml T3, 12.5 ug/ml Adenine, 4 ug/ml transferrin for C42 cells; DME high glucose, 10% FBS, 100 units/ml Penicillin, 100 ug/ml streptomycin, 53 ug/ml glutatmine for HEK293; RPMI, 10% FBS, 100 units/ml Penicillin, 100 ug/ml streptomycin, 53 ug/ml glutatmine, 10 ug/ml insulin, 10 mM HEPEs, 200 nM Sodium Pyruvate for T47D cells) and grown overnight at 37° C. in 5% CO2. For cell viability curves, 1:3 serially diluted payloads were added to the cells at final concentrations ranging from 100 nM to […], including a no treatment control group, and were then incubated for 5 days. After the 5-day incubation, cells were incubated at room temperature with 100 μL of CellTiter-Glo reagents for 10 minutes. Relative luminescence units (RLU) were determined on a Victor plate reader (PerkinElmer). The IC50 values were determined from a four-parameter logistic equation over a 10-point response curve (GraphPad Prism). All IC50 values are expressed in molar (M) concentration. The percent cell killing (% kill) at the maximum concentration tested was estimated from the following formula (100−% viable cells). Averages±standard deviation (SD) are included where replicate experiments were performed.

T47D cells = assay: Cell-based killing assay of payloads (CellTiter-Glo), T47D cells; design: species or system human; settings: 5-day incubation; for IC50: Homo sapiens, T47D, 120 h; for T47D % Kill: at maximum concentration tested
Procedure: as §1

MES-SA/MX2 cells = assay: Cytotoxicity in panel of MDR cell lines, MES-SA/MX2 (72 h and 144 h); format: cell-based, human; settings: for IC50: Homo sapiens
In short: (§2)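 Luminescent ATP readout (CellTiter-Glo) quantified viable cells after 72 h or 144 h exposure to 1:3 serial payload dilutions. Cells plated at 1000/well in their normal growth media. IC50 in M from a four-parameter logistic fit; % kill at top concentration taken as 100 − % viable.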

C4-2 cells = assay: Cell-based killing assay of payloads (CellTiter-Glo), C4-2 cells; design: species or system human; settings: 5-day incubation; for IC50: Homo sapiens, C4-2, 120 h, average ± SD where replicates; for C4-2 % Kill: at maximum concentration tested (100 − % viable cells)
In short: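 Viability readout is CellTiter-Glo luminescence after a 5-day exposure to 10-point, threefold-diluted payloads spanning 100 nM–[…], following overnight attachment of 4000 cells/well. Four-parameter logistic fit gives IC50 in M; % kill taken at highest concentration tested.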

HCT15 cells = assay: cells; format: cell-based, human; settings: HCT15 cells; for HCT-15 + verapamil % Kill / HCT-15 % Kill: maximum % cell killing
In short: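 Five-day exposure of 1000 HCT15 cells/well to threefold payload dilutions, run both plus and minus verapamil (5 ug/mL) in RPMI with 10% FBS. ATP luminescence (CellTiter-Glo) gives viability; four-parameter logistic fit of 10 points yields IC50, and 100 − % viable at highest dose gives % kill.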

HL60/MX2 cells = assay: Cytotoxicity in panel of MDR cell lines, HL60/MX2 (72 h and 144 h); format: cell-based, human; settings: for IC50: Homo sapiens
In short: as §2

HCT-15 cells = assay: Cytotoxicity in panel of MDR cell lines, HCT-15 (72 h and 144 h); format: cell-based, human; settings: for IC50: Homo sapiens
In short: as §2

H69AR cells = assay: Cytotoxicity in panel of MDR cell lines, H69AR (72 h and 144 h); format: cell-based, human; settings: for IC50: Homo sapiens
In short: as §2

[1] = 72 h incubation, read-out: MES-SA/MX2 IC50 72 h
[2] = 144 h incubation, read-out: MES-SA/MX2 IC50 144 h
[3] = with 5 ug/mL Verapamil, read-out: HCT-15 + verapamil IC50
[4] = Homo sapiens, HCT-15, without Verapamil, read-out: HCT-15 IC50
[5] = 72 h incubation, read-out: HL60/MX2 IC50 72 h
[6] = 144 h incubation, read-out: HL60/MX2 IC50 144 h
[7] = 72 h incubation, read-out: HCT-15 IC50 72 h
[8] = 144 h incubation, read-out: HCT-15 IC50 144 h
[9] = 72 h incubation, read-out: H69AR IC50 72 h
[10] = 144 h incubation, read-out: H69AR IC50 144 h

| Structure (SMILES) | IC50 (HEK293 cells) [nM] | HEK293 % Kill (HEK293 cells) [%] | IC50 (T47D cells) [nM] | T47D % Kill (T47D cells) [%] | MES-SA/MX2 % Kill 72 h (MES-SA/MX2 cells; 72 h incubation) [%] | MES-SA/MX2 % Kill 144 h (MES-SA/MX2 cells; 144 h incubation) [%] | IC50 (MES-SA/MX2 cells; [1]) [nM] | IC50 (MES-SA/MX2 cells; [2]) [nM] | IC50 (C4-2 cells) [nM] | C4-2 % Kill (C4-2 cells) [%] | HCT-15 + verapamil % Kill (HCT15 cells; with 5 ug/mL Verapamil) [%] | IC50 (HCT15 cells; [3]) [nM] | HCT-15 % Kill (HCT15 cells; without Verapamil) [%] | IC50 (HCT15 cells; [4]) [nM] | HL60/MX2 % Kill 72 h (HL60/MX2 cells; 72 h incubation) [%] | HL60/MX2 % Kill 144 h (HL60/MX2 cells; 144 h incubation) [%] | IC50 (HL60/MX2 cells; [5]) [nM] | IC50 (HL60/MX2 cells; [6]) [nM] | HCT-15 % Kill 72 h (HCT-15 cells; 72 h incubation) [%] | HCT-15 % Kill 144 h (HCT-15 cells; 144 h incubation) [%] | further results |
| --- | --- | --- | --- | --- | --- | --- | --- | --- | --- | --- | --- | --- | --- | --- | --- | --- | --- | --- | --- | --- | --- |
| C#CCCCCN(C(=O)[C@@H](NC(=O)[C@H]1CCCCN1C)[C@@H](C)CC)[C@H](C[C@@H](OC(C)=O)c1nc(C(=O)N[C@@H](Cc2ccc(O)cc2)C[C@H](C)C(=O)O)cs1)C(C)C [IVf, (2S,4R)-4-({2-[(1R,3R)-1-(Acetyloxy)-3-[(2S,3S)—N-(hex-5-yn-1-yl)-3-methyl-2-{[(2R)-1-methylpiperidin-2-yl]formamido}pentanamido]-4-methylpentyl]-1,3-thiazol-4-yl}formamido)-5-(4-hydroxyphenyl)-2-methylpentanoic acid] | 1.64 | 86.0 | 0.782 | 67.1 | 99.1 | 99.9 | 2.57 | 3.82 | 0.229 | 93.8 | 97.7 | 0.686 | 96.4 | 0.554 | 97.2 | 100 | 0.222 | < 0.015 | 96.9 | 99.8 | IC50 (HCT-15 cells; [7]): 0.419 nM; IC50 (HCT-15 cells; [8]): 0.396 nM; H69AR % Kill 72 h (H69AR cells; 72 h incubation): 94.6%; H69AR % Kill 144 h (H69AR cells; 144 h incubation): 98.9%; IC50 (H69AR cells; [9]): 1.33 nM; IC50 (H69AR cells; [10]): 1.55 nM |
| C#CCCCCN(C(=O)[C@@H](NC(=O)[C@H]1CCCCN1C)[C@@H](C)CC)[C@H](C[C@@H](OC(C)=O)c1nc(C(=O)N[C@@H](Cc2ccc(N)cc2)C[C@H](C)C(=O)O)cs1)C(C)C [IVg, (2S,4R)-4-({2-[(1R,3R)-1-(Acetyloxy)-3-[(2S,3S)—N-(hex-5-yn-1-yl)-3-methyl-2-{[(2R)-1-methylpiperidin-2-yl]formamido}pentanamido]-4-methylpentyl]-1,3-thiazol-4-yl}formamido)-5-(4-aminophenyl)-2-methylpentanoic acid] | 0.539 | 86.5 | 0.413 | 62.9 | 99.6 | 100 | 0.838 | 0.999 | 0.136 | 91.7 | 97.5 | 0.328 | 97.1 | 0.46 | 98.5 | 100 | 0.124 | < 0.015 | 97.6 | 99.5 | IC50 (HCT-15 cells; [7]): 0.17 nM; IC50 (HCT-15 cells; [8]): 0.223 nM; H69AR % Kill 72 h (H69AR cells; 72 h incubation): 95.7%; H69AR % Kill 144 h (H69AR cells; 144 h incubation): 99.2%; IC50 (H69AR cells; [9]): 0.553 nM; IC50 (H69AR cells; [10]): 0.571 nM |
